Reference: US4880804A (E. I. Du Pont De Nemours and Company, priority 1988, dated 1989)

Legend:
[1] = molecular target: AII receptor; test: Angiotensin II receptor binding, displacement of 3H-AII; settings: read-out: Angiotensin II Receptor Binding IC50; rat adrenal cortical microsomes, 2 nM 3H-AII, 1 hour, room temperature
Method: The reaction mixture contained rat adrenal cortical microsomes (source of AII receptor) in Tris buffer and 2 nM of ^3 H-AII with or without potential AII antagonist. This mixture was incubated for 1 hour at room temperature and the reaction was subsequently terminated by rapid filtration and rinsing through glass microfibre filter. Receptor-bound ^3 H-AII trapped in filter was quantitated by scintillation counting.

[2] = system: renal hypertensive rats; test: Antihypertensive effects in renal hypertensive rats; format: in vivo, rat; settings: class symbol
Method: This procedure increases blood pressure by increasing renin production with consequent elevation of AII levels. Compounds are administered orally and/or intravenously via a cannula in the jugular vein. Arterial blood pressure is continuously measured directly through a cartoid artery cannula and recorded using a pressure transducer and a polygraph. Blood pressure levels after treatment are compared to pretreatment levels to determine the antihypertensive effects of the compounds (See Table 4).

[3] = system: AII; settings: cited from earlier work
[4] = system: AII; settings: cited from earlier work; remark: listed apart in the source

| SMILES | IC50 [1] [µM] | Antihypertensive Effects in Renal Hypertensive Rats, Intravenous Activity [2] | also measured |
| --- | --- | --- | --- |
| CCCCc1nc2cc(C(=O)O)ccc2n1Cc1ccc(-c2ccccc2C(=O)O)cc1 [Example 36] | 2.5 | + (Significant decrease in blood pressure at 10 mg/kg or less.) |  |
| CCOC(=O)C=Cc1nc2ccccc2n1Cc1ccc(NC(=O)c2ccccc2C(=O)O)cc1 [Example 4, 3-[1-(4-(2-Carboxybenzamido)benzyl)benzimidazol-2-yl]propenoic acid, ethyl ester] | 15 |  |  |
| CCC=Cc1nc2ccc(CO)cc2n1Cc1ccc(-c2ccccc2C(=O)O)cc1 [Example 32, 2-(1-Butenyl)-6-hydroxymethyl-1-[(2'-carboxybiphenyl-4-yl)methyl]benzimidazole] | 0.5 | + (Significant decrease in blood pressure at 10 mg/kg or less.) | Antihypertensive Effects in Renal Hypertensive Rats, Oral Activity [2]: + (Significant decrease in blood pressure at 100 mg/kg or less.) |
| CCCCc1nc2ccc(OC)cc2n1Cc1ccc(-c2ccccc2C(=O)O)cc1 [Example 29, 1-[(2'-Carboxybiphenyl-4-yl)methyl]-2-butyl-6-methoxybenzimidazole] | 0.92 | + (Significant decrease in blood pressure at 10 mg/kg or less.) |  |
| CCCCc1nc2ccc(CO)cc2n1Cc1ccc(-c2ccccc2C(=O)O)cc1 [Example 27, 2-Butyl-1-[(2'-Carboxybiphenyl-4-yl)methyl]-6-hydroxymethylbenzimidazole] | 0.22 | + (Significant decrease in blood pressure at 10 mg/kg or less.) | Antihypertensive Effects in Renal Hypertensive Rats, Oral Activity [2]: + (Significant decrease in blood pressure at 100 mg/kg or less.) |
| CCCCc1nc2ccc(Cl)cc2n1Cc1ccc(-c2ccccc2C(=O)O)cc1 [Example 33, 2-Butyl-1-[(2'-carboxybiphenyl-4-yl)methyl]-6-chlorobenzimidazole] | 5 | + (Significant decrease in blood pressure at 10 mg/kg or less.) | Antihypertensive Effects in Renal Hypertensive Rats, Oral Activity [2]: + (Significant decrease in blood pressure at 100 mg/kg or less.) |
| CCOC(=O)C=Cc1nc2ccccc2n1Cc1ccc(NC(=O)c2ccccc2NS(=O)(=O)C(F)(F)F)cc1 [Example 5] | 29 |  |  |
| CCCCc1nc2cc(CO)ccc2n1Cc1ccc(-c2ccccc2C(=O)O)cc1 [Example 28, 2-Butyl-1-[(2'-carboxybiphenyl-4-yl)methyl]-5-hydroxymethylbenzimidazole] | 0.37 | + (Significant decrease in blood pressure at 10 mg/kg or less.) |  |
| COCc1nc2ccc(CO)cc2n1Cc1ccc(-c2ccccc2C(=O)O)cc1 [Example 34] | 6.3 | + (Significant decrease in blood pressure at 10 mg/kg or less.) |  |
| CCCCc1nc2cc(Cl)ccc2n1Cc1ccc(-c2ccccc2C(=O)O)cc1 [Example 38] | 11 | + (Significant decrease in blood pressure at 10 mg/kg or less.) |  |
| CNCC(=O)N[C@@H](CCCN=C(N)N)C(=O)N[C@H](C(=O)N[C@@H](Cc1ccc(O)cc1)C(=O)N[C@H](C(=O)N[C@@H](Cc1cnc[nH]1)C(=O)N1CCC[C@H]1C(=O)N[C@@H](C)C(=O)O)C(C)C)C(C)C [Saralasin] |  |  | Antagonism of the actions of AII ([3]; in words): one of the most potent competitive antagonists of the actions of AII; Block of the effects of AII on blood pressure ([3]; pithed rats): blocks the effects of AII on the blood pressure of pithed rats; Lowering of arterial pressure ([4]; elevated pressure dependent on circulating AII): lower arterial pressure in mammals and man when the (elevated) pressure is dependent on circulating AII; Oral effectiveness ([4]; oral): oral doses being ineffective; Duration of pharmacological effects ([4]; parenteral administration): relatively short-lasting; Pressor effects (agonistic character) ([4]; pressure not sustained by AII): generally elicits pressor effects when the pressure is not sustained by AII |
| CCCCc1nc2ccc(C=O)cc2n1Cc1ccc(-c2ccccc2C(=O)O)cc1 [Example 31] | 1.4 | + (Significant decrease in blood pressure at 10 mg/kg or less.) |  |
| CCCCc1nc2ccc(C(=O)O)cc2n1Cc1ccc(-c2ccccc2C(=O)O)cc1 [Example 37] | 5.7 | + (Significant decrease in blood pressure at 10 mg/kg or less.) |  |
| COCc1nc2cc(CO)ccc2n1Cc1ccc(-c2ccccc2C(=O)O)cc1 [Example 35] | 21 | + (Significant decrease in blood pressure at 10 mg/kg or less.) |  |
| CCCC=Cc1nc2ccccc2n1Cc1ccc(NC(=O)c2ccccc2C(=O)O)cc1 [Example 3, 1-[4-(2-Carboxybenzamido)benzyl]-2-(1-pentenyl)benzimidazole] | 4.4 |  |  |
| CCOC(=O)CCc1nc2ccccc2n1Cc1ccc(NC(=O)c2ccccc2C(=O)O)cc1 [Example 2, 3-[1-(4-(2-Carboxybenzamido)benzyl)benzimidazole-2-yl]-2-propanoic acid, ethyl ester] | 2.1 |  |  |
| CCOC(=O)CCc1nc2ccccc2n1Cc1ccc(NC(=O)c2ccccc2NS(=O)(=O)C(F)(F)F)cc1 [Example 6] | 2.8 |  |  |
| CCOC(=O)C(Cc1nc2ccccc2n1Cc1ccc(NC(=O)c2ccccc2C(=O)O)cc1)C(=O)OCC [Example 1, 3-[1-(4-(2-Carboxybenzamido)benzyl)benzimidazol-2-yl]-2-(carboethoxy)propanoic acid, ethyl ester] | 8.3 |  |  |
| CCCCc1nc2cc(OC)ccc2n1Cc1ccc(-c2ccccc2C(=O)O)cc1 [Example 30] | 1 | + (Significant decrease in blood pressure at 10 mg/kg or less.) |  |
